From US6156700A, “3-(1,2-Benzisothiazol- and isoxazol-5-yl)-2,4(1H,3H)-pyrimidinedione or thione and 3-(1,2-benzisothiazol- and isoxazol-5-yl)-4(3H)-pyrimidinone or thione herbicidal agents” (American Cyanmid Company, priority 1998, dated 2000)

How the values were obtained:
Assay type in all cases: in vivo
CHEAL [1] = experiment: Preemergence herbicidal evaluation; set-up: scale not given here
Method: (§1) The preemergence and postemergence herbicidal properties of certain compounds of the present invention are compared with certain compounds disclosed in U.S. Pat. Nos. 5,484,763 and 5,523,278. The evaluations are performed as described in Examples 185 and 186. Data in Tables V and VI are reported by the compound number given in Example 185 for the compounds of this invention or by comparative compound letter for the compounds disclosed in U.S. Pat. Nos. 5,484,763 and 5,523,278.

CASOB = experiment: Preemergence herbicidal evaluation; set-up: scale not given here
Method: as §1

ABUTH = experiment: Preemergence herbicidal evaluation; set-up: scale not given here
Method: as §1

ZEAMX = experiment: Preemergence herbicidal evaluation; set-up: scale not given here
Method: as §1

GLXMAW = experiment: Preemergence herbicidal evaluation; set-up: scale not given here
Method: as §1

GALAP = experiment: Preemergence herbicidal evaluation; set-up: scale not given here
Method: as §1

ECHCG = experiment: Preemergence herbicidal evaluation; set-up: scale not given here
Method: as §1

IPOSS [2] = experiment: Preemergence herbicidal evaluation; set-up: scale not given here
Method: as §1

CHEAL [3] = experiment: Postemergence herbicidal evaluation
SETVI = experiment: Postemergence herbicidal evaluation
AMBEL = experiment: Postemergence herbicidal evaluation
IPOSS [4] = experiment: Postemergence herbicidal evaluation

**Q.** What does the source list for Cc1nsc2ccc(N3C(=O)C4=C(CCCC4)C3=O)cc12 [B]?
**A.** herbicidal effect rating (CHEAL [1]; 0.2500 kg/ha): 9.0; herbicidal effect rating (CHEAL [1]; 0.5000 kg/ha): 9.0; herbicidal effect rating (CASOB; 0.0313-0.0320 kg/ha): 0.0; herbicidal effect rating (CASOB; 0.0620-0.0630 kg/ha): 0.0; herbicidal effect rating (CASOB; 0.1250 kg/ha): 0.0; herbicidal effect rating (CASOB; 0.2500 kg/ha): 0.0; herbicidal effect rating (CASOB; 0.5000 kg/ha): 0.0; herbicidal effect rating (ABUTH; 0.0313-0.0320 kg/ha): 0.0; herbicidal effect rating (ABUTH; 0.0620-0.0630 kg/ha): 3.0; herbicidal effect rating (ABUTH; 0.2500 kg/ha): 2.0; herbicidal effect rating (ABUTH; 0.5000 kg/ha): 5.0; herbicidal effect rating (ZEAMX; 0.0313-0.0320 kg/ha): 0.0; herbicidal effect rating (ZEAMX; 0.0620-0.0630 kg/ha): 0.0; herbicidal effect rating (ZEAMX; 0.1250 kg/ha): 0.0; herbicidal effect rating (ZEAMX; 0.2500 kg/ha): 0.0; herbicidal effect rating (ZEAMX; 0.5000 kg/ha): 1.0; herbicidal effect rating (GLXMAW; 0.0313-0.0320 kg/ha): 0.0; herbicidal effect rating (GLXMAW; 0.0620-0.0630 kg/ha): 0.0; herbicidal effect rating (GLXMAW; 0.1250 kg/ha): 0.0; herbicidal effect rating (GLXMAW; 0.2500 kg/ha): 1.0; herbicidal effect rating (GLXMAW; 0.5000 kg/ha): 1.0; herbicidal effect rating (GALAP; 0.0313-0.0320 kg/ha): 0.0; herbicidal effect rating (GALAP; 0.0620-0.0630 kg/ha): 0.0; herbicidal effect rating (GALAP; 0.1250 kg/ha): 5.0; herbicidal effect rating (GALAP; 0.2500 kg/ha): 9.0; herbicidal effect rating (GALAP; 0.5000 kg/ha): 7.0; herbicidal effect rating (ECHCG; 0.0313-0.0320 kg/ha): 0.0; herbicidal effect rating (ECHCG; 0.0620-0.0630 kg/ha): 0.0; herbicidal effect rating (ECHCG; 0.1250 kg/ha): 3.0; herbicidal effect rating (ECHCG; 0.2500 kg/ha): 5.0; herbicidal effect rating (ECHCG; 0.5000 kg/ha): 5.0; herbicidal effect rating (IPOSS [2]; 0.0313-0.0320 kg/ha): 0.0; herbicidal effect rating (IPOSS [2]; 0.0620-0.0630 kg/ha): 0.0; herbicidal effect rating (IPOSS [2]; 0.1250 kg/ha): 0.0; herbicidal effect rating (IPOSS [2]; 0.2500 kg/ha): 2.0; herbicidal effect rating (IPOSS [2]; 0.5000 kg/ha): 5.0; herbicidal effect rating (CHEAL [3]; 0.0157-0.0160 kg/ha): 3.0; herbicidal effect rating (CHEAL [3]; 0.0313-0.0320 kg/ha): 7.0; herbicidal effect rating (CHEAL [3]; 0.0625-0.0640 kg/ha): 7.0; herbicidal effect rating (CHEAL [3]; 0.1250 kg/ha): 9.0; herbicidal effect rating (CHEAL [3]; 0.2500 kg/ha): 8.0; herbicidal effect rating (CHEAL [3]; 0.5000 kg/ha): 9.0; herbicidal effect rating (SETVI; 0.0157-0.0160 kg/ha): 0.0; herbicidal effect rating (SETVI; 0.0313-0.0320 kg/ha): 0.0; herbicidal effect rating (SETVI; 0.0625-0.0640 kg/ha): 2.0; herbicidal effect rating (SETVI; 0.1250 kg/ha): 4.0; herbicidal effect rating (SETVI; 0.2500 kg/ha): 5.0; herbicidal effect rating (SETVI; 0.5000 kg/ha): 5.0; herbicidal effect rating (AMBEL; 0.0157-0.0160 kg/ha): 2.0; herbicidal effect rating (AMBEL; 0.0313-0.0320 kg/ha): 6.0; herbicidal effect rating (AMBEL; 0.0625-0.0640 kg/ha): 8.0; herbicidal effect rating (AMBEL; 0.1250 kg/ha): 8.0; herbicidal effect rating (AMBEL; 0.2500 kg/ha): 9.0; herbicidal effect rating (AMBEL; 0.5000 kg/ha): 9.0; herbicidal effect rating (IPOSS [4]; 0.0157-0.0160 kg/ha): 6.0; herbicidal effect rating (IPOSS [4]; 0.0313-0.0320 kg/ha): 7.0; herbicidal effect rating (IPOSS [4]; 0.0625-0.0640 kg/ha): 8.0; herbicidal effect rating (IPOSS [4]; 0.1250 kg/ha): 8.0; herbicidal effect rating (IPOSS [4]; 0.2500 kg/ha): 8.0; herbicidal effect rating (IPOSS [4]; 0.5000 kg/ha): 9.0
